# Results from paper PMC9374667 (Communications Biology, 2022).
# Values joined by “and” are separate entries in the source; they are usually repeats but may differ in a detail not shown here. Equal entries are not always repeated.
# How the values were obtained:
# TNF-α and IL-6 = experiment: Serum levels of TNF-α and IL-6 (ELISA); assay type: in vivo, mice; design: TNFα / IL-6: unit not given here; conditions: for IL-6: Figure 5i; for Serum TNF-α and IL-6 levels: db/db mice, 5 weeks of treatment
# Experimental: The serum was collected by centrifugation at 3000 × g at 4 °C for 15 min and stored at −80 °C until analysis. TG, TC, LDL-C, HDL-C, and FFA were routinely tested on a Chemray 240 automatic biochemical analyzer (Chemray 240, Shenzhen, China). Serum levels of mouse adiponectin, interleukin6 (IL-6), tumor necrosis factor-α (TNF-α) were measured using commercial enzyme-linked immunosorbent assay (ELISA) kits (Nanjing Jiancheng Bioengineering Institute, Nanjing, China) and according to the manufacturer’s instructions. The levels of IL-6, TNF-α in 3T3-L1 adipocyte culture supernatant were also detected by ELISA.
# 3T3-L1 adipocytes = experiment: Immunofluorescence staining of UCP1 and MitoTracker; assay type: cell-based, Murine; design: key: mean fluorescence intensity measured in ImageJ; conditions: Figure 7d; 10uM BBR; replicates
# Experimental: The 3T3-L1 adipocytes were washed with PBS for 3 times, fixed with 4% paraformaldehyde solution for 30 min, and then washed again for 3 times. […] The cells were then incubated overnight at 4 °C with the appropriate primary antibodies (1:100 dilution). The next day, the 3T3-L1 adipocytes were washed and incubated at room temperature with goat anti-rabbit secondary antibody or goat anti-mouse secondary antibody (1:1000 dilution) for 2 h and washed with PBS for 3 times. The nuclei were stained with DAPI. […] Fluorescence images were taken using a laser confocal microscope (SP8, Leica, Germany). At least four images per section were acquired for quantification, and the mean intensity were evaluated using ImageJ.
# db/db mice = experiment: Serum ASAT, ALAT, BUN and Cr (toxicity) in db/db mice; assay type: in vivo
# Ikbke = experiment: RT-qPCR of Ikbke in eWAT and BAT; assay type: in vivo; conditions: db/db mice, both doses of BJ
# From the text: Total RNA was isolated from 3T3-L1 cells and adipose tissue homogenates using Trizol reagent (Invitrogen, Carlsbad, CA, USA). RNA concentration and purity were examined at 260/280 nm using a nanodrop spectrophotometer (NanoDrop One, Thermo Fisher Scientific, USA). The total RNA was reverse transcribed to cDNA using the EasyScript All-in-One First-Strand cDNA Synthesis SuperMix for qPCR kit (TransGen Biotech, Beijing, China). The quantitative reverse transcription polymerase chain reaction was performed using TransStart Top Green qPCR SuperMix (TransGen Biotech, Beijing, China) and an Applied Biosystems 7500 RealTime PCR System (Life Technologies, USA). Relative expression levels were normalized to gapdh expression and quantified using the 2^-ΔΔCt method. The primers were synthesized by Shanghai Sangon Biotech, and the detailed primer sequences were shown in Supplementary Table 5 in the supplementary materials.
# TBK1 = molecular target: T1, TBK1 (Mus musculus, UniProt Q9WUN2); experiment: TBK1 activity assay in eWAT; assay type: in vivo, mice; design: The adipose tissue was ultrasound-crushed in PBS buffer solution (1:9 w/v) to prepare the tissue homogenate; from tissue; host or cells: epididymal white adipose tissue (eWAT) and brown adipose tissue (BAT) of C57BLKS WT and db/db mice; conditions: for the expression of TBK1 in eWAT of db/db mice: Figure 6c, individual values
# T1 sequence (Q9WUN2 1-729): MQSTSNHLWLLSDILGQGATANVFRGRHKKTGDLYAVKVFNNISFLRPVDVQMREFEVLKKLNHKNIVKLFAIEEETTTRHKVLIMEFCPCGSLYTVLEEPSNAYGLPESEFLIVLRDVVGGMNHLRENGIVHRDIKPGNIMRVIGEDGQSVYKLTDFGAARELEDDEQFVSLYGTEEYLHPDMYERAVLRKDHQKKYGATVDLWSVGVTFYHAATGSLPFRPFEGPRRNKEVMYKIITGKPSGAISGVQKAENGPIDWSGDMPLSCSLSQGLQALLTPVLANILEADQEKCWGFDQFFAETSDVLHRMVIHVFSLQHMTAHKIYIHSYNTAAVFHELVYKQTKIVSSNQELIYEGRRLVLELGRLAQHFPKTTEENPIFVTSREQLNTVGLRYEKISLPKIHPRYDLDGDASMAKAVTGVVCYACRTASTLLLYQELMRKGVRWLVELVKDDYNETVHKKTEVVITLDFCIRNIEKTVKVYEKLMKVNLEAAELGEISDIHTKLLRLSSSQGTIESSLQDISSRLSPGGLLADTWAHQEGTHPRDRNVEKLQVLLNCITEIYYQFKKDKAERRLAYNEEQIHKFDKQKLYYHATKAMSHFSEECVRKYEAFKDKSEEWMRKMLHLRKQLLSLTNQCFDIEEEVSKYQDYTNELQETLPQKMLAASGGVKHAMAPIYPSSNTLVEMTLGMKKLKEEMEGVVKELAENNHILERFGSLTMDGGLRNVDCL
# Experimental: The adipose tissue was ultrasound-crushed in PBS buffer solution (1:9 w/v) to prepare the tissue homogenate. The tissue homogenate was centrifuged at 5000 × g for 10 min, and the supernatant was taken for detection. Briefly, samples or standards were added to the microplates pre-coated with IKKε antibody or TBK1 antibody. Then horseradish peroxidase (HRP) labeled antibody was added and incubated at 37 °C for 60 min. After thorough washing, the 3,3′,5,5′-tetramethylbenzidine (TMB) substrate was used for color development, and the absorbance (OD value) was determined at 450 nm.
# [1] = 150mg/kg, db/db mice, individual animals
SMILES,"IL-6 (TNF-α and IL-6; BBR 150mg/kg, individual values)","TNFα (TNF-α and IL-6; Figure 5h, BBR 150mg/kg, individual values)",Serum TNF-α and IL-6 levels (TNF-α and IL-6),MitoTracker (3T3-L1 adipocytes),UCP1 (3T3-L1 adipocytes),ALT (db/db mice; [1]),AST (db/db mice; [1]),BUN (db/db mice; [1]),Cr (db/db mice; [1]),"Fasting serum ASAT, ALAT, BUN, and Cr levels (db/db mice; db/db mice, 5 weeks of treatment, vs vehicle control)","IL-6 (TNF-α and IL-6; BJ 75mg/kg, individual values)","IL-6 (TNF-α and IL-6; BJ 150mg/kg, individual values)",Ikbke mRNA expression in BAT (Ikbke),mRNA level of IKKε (Ikbke) in eWAT (Ikbke),"Fasting serum ASAT, ALAT, BUN, and Cr levels (db/db mice; mouse, in vivo)",the expression of TBK1 in eWAT of db/db mice (TBK1; db/db+BJ 75mg/kg),the expression of TBK1 in eWAT of db/db mice (TBK1; db/db+BJ 150mg/kg),"TBK1 kinase activity in eWAT (TBK1; db/db mice, both doses of BJ (75 and 150 mg/kg))"
"COc1ccc2cc3[n+](cc2c1OC)CCc1cc2c(cc1-3)OCO2 [BBR, Berberine chloride dihydrate]",24.23 and 30 and 30.18 and 32.12 and 23.56 and 26.45,161.97 and 148.57 and 185.98 and 167.03 and 204.23 and 186.47,significantly lower than those in the vehicle-treated group,25.545 and 18.064 and 22.543 and 21.627 and 16.023 and 19.205 and 20.957 and 15.64 and 24.469 and 20.477 and 21.808 and 21.524,28.534 and 25.717 and 23.768 and 26.01 and 16.988 and 23.573 and 17.055 and 20.669 and 24.128 and 20.8 and 21.801 and 21.746,86 U/L and 97 U/L and 103 U/L and 92 U/L and 85 U/L,125.4 U/L and 140.1 U/L and 155.9 U/L and 114.8 U/L and 154.6 U/L and 172.8 U/L,8.17 mmol/L and 9.82 mmol/L and 8.93 mmol/L and 9.15 mmol/L and 9.31 mmol/L and 8.1 mmol/L,17.7 µmol/L and 16.3 µmol/L and 16.4 µmol/L and 17.9 µmol/L and 17.6 µmol/L,"reduced fasting serum ASAT, ALAT, BUN, and Cr levels",–,–,–,–,–,–,–,–
"CC(C)Cc1ccc(C(C)C(=O)[O-])cc1.COc1ccc2cc3[n+](cc2c1OC)CCc1cc2c(cc1-3)OCO2.O.O.O.O [BJ, berberine-ibuprofen]",–,–,significantly lower than those in the vehicle-treated group,–,–,–,123.8 U/L,–,–,–,26.97 and 31.48 and 28.06 and 26.92 and 26.5 and 27.07,19.1 and 22.16 and 23.89 and 18.97 and 21.55 and 28.79,had no effect,significantly reduced,"reduced fasting serum ASAT, ALAT, BUN, and Cr levels",0.538 U/g and 0.576 U/g and 0.532 U/g and 0.587 U/g and 0.53 U/g,0.413 U/g and 0.391 U/g and 0.35 U/g and 0.361 U/g and 0.451 U/g and 0.379 U/g,significantly reduced
